Experimental data: patent EP0432983A2 (priority 1989, dated 1991)
Values after ≈ are worked out from the molar mass of the structure shown.

What was measured:
[1] = tested on: HT-29 (human colon carcinoma); assay: General anti-tumour assay, HT-29; type: cell-based
Experimental: (§1) With compounds AH-3, AH-4 and AH-5, four general anti-tumour assays and two cytotoxicity assays were performed. Current screening protocols were employed using test substance diluted as above and at varying concentrations. Tests were performed against the tumour cells P-388 (mouse DBA/2 lymphoid neoplasm), A-549 (human lung carcinoma), HT-29 (human colon carcinoma) and MCF-7 (human breast carcinoma) and for the cytotoxicity assays against CV-1 (monkey kidney fibroblast) and BHK (Hamster kidney fibroblast).
(§2) Scoring is performed as follows: (-) no activity - the number of cells is equal to the control of growth, 0-40% cell inhibition (+) low activity - numbers of cells are reduced by approx 50-60% (++) good activity - numbers of cells are reduced by approx 70-90% (+++) very good activity - there is 100% cell inhibition [(+) is the approximate IC₅₀]

[2] = tested on: A-549 (human lung carcinoma); assay: General anti-tumour assay, A-549; type: cell-based
Experimental: as §1, §2

[3] = tested on: VSV (Vesicular Stomatitis Virus); assay: microbe, parasite or virus in culture; type: cell-based; conditions: BHK, read-out: IC50 µg/ml approx
[4] = tested on: BHK cells
[5] = tested on: MCF-7 (human breast carcinoma); assay: General anti-tumour assay, MCF-7; type: cell-based
Experimental: as §1, §2

[6] = tested on: P-388 (mouse DBA/2 lymphoid neoplasm); assay: General anti-tumour assay, P-388; type: cell-based
Experimental: as §1, §2

[7] = tested on: BHK (Hamster kidney fibroblast); assay: Cytotoxicity assay, BHK; type: cell-based
Experimental: as §1, §2

[8] = tested on: CV-1 (monkey kidney fibroblast); assay: Cytotoxicity assay, CV-1; type: cell-based
Experimental: as §1, §2

[9] = tested on: HSV-1 (herpes simplex virus, type 1); assay: General anti-viral assay, HSV-1 in CV-1 cells (plaque reduction); type: cell-based; conditions: Human alphaherpesvirus 1; CV-1/ HSV-1; read-out: IC50 µg/ml approx

SMILES: CC(C)=CCCC(C)C1CCC(C)c2c1cc(C)c1c2OCO1 (stereo not drawn) [AH-4, Helioporin D]
- activity (cell inhibition) ([1]; HT-29, TEST CONC (µg) 0.2): - ((-) no activity - the number of cells is equal to the control of growth, 0-40% cell inhibition)
- activity (cell inhibition) ([1]; HT-29, TEST CONC (µg) 0.5): - ((-) no activity - the number of cells is equal to the control of growth, 0-40% cell inhibition)
- activity (cell inhibition) ([1]; HT-29, TEST CONC (µg) 1): - ((-) no activity - the number of cells is equal to the control of growth, 0-40% cell inhibition)
- activity (cell inhibition) ([1]; HT-29, TEST CONC (µg) 2): - ((-) no activity - the number of cells is equal to the control of growth, 0-40% cell inhibition)
- activity (cell inhibition) ([1]; HT-29, TEST CONC (µg) 5): + ((+) low activity - numbers of cells are reduced by approx 50-60%)
- activity (cell inhibition) ([1]; HT-29, TEST CONC (µg) 10): +++ ((+++) very good activity - there is 100% cell inhibition)
- activity (cell inhibition) ([1]; HT-29, TEST CONC (µg) 20): +++ ((+++) very good activity - there is 100% cell inhibition)
- IC50 ([1]; Homo sapiens, HT-29, read-out: IC50 µg/ml approx): ~5 µg/mL (≈ 15.9 µM)
- activity (cell inhibition) ([2]; A-549, TEST CONC (µg) 0.2): - ((-) no activity - the number of cells is equal to the control of growth, 0-40% cell inhibition)
- activity (cell inhibition) ([2]; A-549, TEST CONC (µg) 0.5): - ((-) no activity - the number of cells is equal to the control of growth, 0-40% cell inhibition)
- activity (cell inhibition) ([2]; A-549, TEST CONC (µg) 1): - ((-) no activity - the number of cells is equal to the control of growth, 0-40% cell inhibition)
- activity (cell inhibition) ([2]; A-549, TEST CONC (µg) 2): - ((-) no activity - the number of cells is equal to the control of growth, 0-40% cell inhibition)
- activity (cell inhibition) ([2]; A-549, TEST CONC (µg) 5): - ((-) no activity - the number of cells is equal to the control of growth, 0-40% cell inhibition)
- activity (cell inhibition) ([2]; A-549, TEST CONC (µg) 10): ++ ((++) good activity - numbers of cells are reduced by approx 70-90%)
- activity (cell inhibition) ([2]; A-549, TEST CONC (µg) 20): ++ ((++) good activity - numbers of cells are reduced by approx 70-90%)
- IC50 ([2]; Homo sapiens, A549, A-549, read-out: IC50 µg/ml approx): 5 to 10 µg/mL (≈ 15.9 to 31.8 µM)
- IC50 [3]: > 40 µg/mL
- cytotoxicity (inhibition zone on the cell sheet) [4]: 0-
- IC50 ([5]; Homo sapiens, MCF7, MCF-7, read-out: IC50 µg/ml approx): ~10 µg/mL (≈ 31.8 µM)
- activity (cell inhibition) ([5]; MCF-7, TEST CONC (µg) 0.2): - ((-) no activity - the number of cells is equal to the control of growth, 0-40% cell inhibition)
- activity (cell inhibition) ([5]; MCF-7, TEST CONC (µg) 0.5): - ((-) no activity - the number of cells is equal to the control of growth, 0-40% cell inhibition)
- activity (cell inhibition) ([5]; MCF-7, TEST CONC (µg) 1): - ((-) no activity - the number of cells is equal to the control of growth, 0-40% cell inhibition)
- activity (cell inhibition) ([5]; MCF-7, TEST CONC (µg) 2): - ((-) no activity - the number of cells is equal to the control of growth, 0-40% cell inhibition)
- activity (cell inhibition) ([5]; MCF-7, TEST CONC (µg) 5): - ((-) no activity - the number of cells is equal to the control of growth, 0-40% cell inhibition)
- activity (cell inhibition) ([5]; MCF-7, TEST CONC (µg) 10): + ((+) low activity - numbers of cells are reduced by approx 50-60%)
- activity (cell inhibition) ([5]; MCF-7, TEST CONC (µg) 20): ++ ((++) good activity - numbers of cells are reduced by approx 70-90%)
- IC50 ([6]; Mus musculus, P388, P-388, read-out: IC50 µg/ml approx): ~2 µg/mL (≈ 6.36 µM)
- activity (cell inhibition) ([6]; P-388, TEST CONC (µg) 0.2): - ((-) no activity - the number of cells is equal to the control of growth, 0-40% cell inhibition)
- activity (cell inhibition) ([6]; P-388, TEST CONC (µg) 0.5): - ((-) no activity - the number of cells is equal to the control of growth, 0-40% cell inhibition)
- activity (cell inhibition) ([6]; P-388, TEST CONC (µg) 1): - ((-) no activity - the number of cells is equal to the control of growth, 0-40% cell inhibition)
- activity (cell inhibition) ([6]; P-388, TEST CONC (µg) 2): + ((+) low activity - numbers of cells are reduced by approx 50-60%)
- activity (cell inhibition) ([6]; P-388, TEST CONC (µg) 5): ++ ((++) good activity - numbers of cells are reduced by approx 70-90%)
- activity (cell inhibition) ([6]; P-388, TEST CONC (µg) 10): ++ ((++) good activity - numbers of cells are reduced by approx 70-90%)
- activity (cell inhibition) ([6]; P-388, TEST CONC (µg) 20): ++ ((++) good activity - numbers of cells are reduced by approx 70-90%)
- IC50 ([7]; Mesocricetus auratus, read-out: IC50 µg/ml approx): 2 to 5 µg/mL (≈ 6.36 to 15.9 µM)
- activity (cell inhibition) ([7]; TEST CONC (µg) 0.2): - ((-) no activity - the number of cells is equal to the control of growth, 0-40% cell inhibition)
- activity (cell inhibition) ([7]; TEST CONC (µg) 0.5): - ((-) no activity - the number of cells is equal to the control of growth, 0-40% cell inhibition)
- activity (cell inhibition) ([7]; TEST CONC (µg) 1): - ((-) no activity - the number of cells is equal to the control of growth, 0-40% cell inhibition)
- activity (cell inhibition) ([7]; TEST CONC (µg) 2): - ((-) no activity - the number of cells is equal to the control of growth, 0-40% cell inhibition)
- activity (cell inhibition) ([7]; TEST CONC (µg) 5): ++ ((++) good activity - numbers of cells are reduced by approx 70-90%)
- activity (cell inhibition) ([7]; TEST CONC (µg) 10): +++ ((+++) very good activity - there is 100% cell inhibition)
- activity (cell inhibition) ([7]; TEST CONC (µg) 20): +++ ((+++) very good activity - there is 100% cell inhibition)
- activity (cell inhibition) ([8]; CV-1, TEST CONC (µg) 0.2): - ((-) no activity - the number of cells is equal to the control of growth, 0-40% cell inhibition)
- activity (cell inhibition) ([8]; CV-1, TEST CONC (µg) 0.5): - ((-) no activity - the number of cells is equal to the control of growth, 0-40% cell inhibition)
- activity (cell inhibition) ([8]; CV-1, TEST CONC (µg) 1): - ((-) no activity - the number of cells is equal to the control of growth, 0-40% cell inhibition)
- activity (cell inhibition) ([8]; CV-1, TEST CONC (µg) 2): - ((-) no activity - the number of cells is equal to the control of growth, 0-40% cell inhibition)
- activity (cell inhibition) ([8]; CV-1, TEST CONC (µg) 5): - ((-) no activity - the number of cells is equal to the control of growth, 0-40% cell inhibition)
- activity (cell inhibition) ([8]; CV-1, TEST CONC (µg) 10): + ((+) low activity - numbers of cells are reduced by approx 50-60%)
- activity (cell inhibition) ([8]; CV-1, TEST CONC (µg) 20): ++ ((++) good activity - numbers of cells are reduced by approx 70-90%)
- IC50 ([8]; Primates, CV-1, read-out: IC50 µg/ml approx): ~10 µg/mL (≈ 31.8 µM)
- IC50 [9]: > 40 µg/mL
